Patent publication US20110060021A1 (priority 2009, published 2011)

Legend:
NCI-60 cancer cell lines [1] = test: NCI-60 single-dose assay; assay type: cell-based, human; conditions: single dose 10 μM
[2] = system: breast cancer cell line (BT-549); test: NCI-60 assay, BT-549 cell line; assay type: cell-based, human
NCI-60 cancer cell lines [3] = conditions: for number of cancer cell lines completely killed / number of cancer cell lines whose growth was totally inhibited / TGI50, median concentration for total growth inhibition / GI50 / CC50: five-dose assay; for number of cancer cell lines completely killed: at median LC50 or lower; for number of cancer cell lines whose growth was totally inhibited: at median TGI50 or lower; for TGI50, median concentration for total growth inhibition: 29 (A) / 28 (B) cell lines; for GI50: read-out: GI50, median concentration, all but three cancer cell lines (HCT-15, NCI/ADR-RES, CAKI-1); for CC50: read-out: LC50, median concentration, 17 (A) / 20 (B) cell lines completely killed
[4] = system: CNS cancer cell line (U251); test: NCI-60 assay, U251 cell line; assay type: cell-based, human
[5] = system: recombinant human HDAC1-4 and HDAC6-9; test: Histone deacetylase inhibition, two-step fluorogenic assay; assay type: biochemical; conditions: reduced form of the compound
Protocol: TCEP, tris(2-carboxyethyl)phosphine hydrocloride used as a reducing agent.
The experiments included HDACs falling in human class I (HDACs 1, 2, 3 and 8), as well as human class II (HDACs 4, 6, 7 and 9), and the activities were determined in a two-step fluorogenic assay by the method described in (Wegener et al. Analytical biochemistry (2003) 321:202-208). All HDAC dose-response curves were bundled for each compound individually in the native/oxidized and the reduced forms. The activity of each enzyme was normalized separately. For determination of the inhibitory effect, IC50 values (in μM concentrations) were obtained through a non-linear four-parameter fit.

| Compound | inhibitory activity across the 60 cancer cell lines (NCI-60 cancer cell lines [1]) | number of cell lines inhibited at the mean growth percent or more (NCI-60 cancer cell lines [1]) [cell lines] | sensitivity of BT-549 breast cancer cell line [2] | number of cancer cell lines completely killed (NCI-60 cancer cell lines [3]) [cancer cell lines] | number of cancer cell lines whose growth was totally inhibited (NCI-60 cancer cell lines [3]) [cancer cell lines] | TGI50, median concentration for total growth inhibition (NCI-60 cancer cell lines [3]) [nM] | GI50 (NCI-60 cancer cell lines [3]) [nM] | CC50 (NCI-60 cancer cell lines [3]) [nM] | sensitivity of U251 CNS cancer cell line [4] | cancer cell lines inhibited in five-dose assay (NCI-60 cancer cell lines [3]; exceptions: HCT-15 colon, NCI/ADR-RES ovarian, CAKI-1 renal) | relative potency (all parameters) (NCI-60 cancer cell lines [3]; thailandepsin A vs thailandepsin B) | HDAC inhibition ranking (order of inhibition) [5] |
| --- | --- | --- | --- | --- | --- | --- | --- | --- | --- | --- | --- | --- |
| CCCC[C@H]1NC(=O)C[C@H]2/C=C/CCSSC[C@@H](NC1=O)C(=O)N[C@H]([C@@H](C)CC)[C@@H](O)CC(=O)O2 [thailandepsin B] | consistently inhibitory to most but not all 60 cancer cell lines | 30 | very sensitive | 20 | 28 | ≤ 256.4 | ≤ 11.7 | ≤ 6920 | very sensitive | – | – | – |
| CC[C@H](C)[C@H]1NC(=O)[C@H]2CSSCC/C=C/[C@H](CC(=O)N[C@H](CCSC)C(=O)N2)OC(=O)C[C@@H]1O [thailandepsin A] | consistently inhibitory to most but not all 60 cancer cell lines | 28 | very sensitive | 17 | 29 | ≤ 125.9 | ≤ 5.6 | ≤ 3890 | very sensitive | inhibitory to all but three cancer cell lines | twice as potent as thailandepsin B | – |
| CC=C1NC(=O)C(CS)NC(=O)C(C(C)C)NC(=O)CC(C=CCCS)OC(=O)C(C(C)C)NC1=O (stereo not drawn) [reduced form of FK228] | – | – | – | – | – | – | – | – | – | – | – | HDAC2≧HDAC3≧HDAC1>HDAC8>HDAC4≧HDAC6>HDAC9≧HDAC7 |
